Data as given in article PMC5515057, “Protein sensing in living cells by molecular rotor-based fluorescence-switchable chemical probes” (Chemical Science, 2015).

Key:
[1] = target: T1, O6-methylguanine-methyltransferase (MGMT) (Homo sapiens, UniProt P16455); assay: fluorescence turn-on kinetics with recombinant MGMT, SDS-PAGE in-gel fluorescence, Job's plot; also HeLa S3 lysate labeling; format: binding; details: read-out: fluorescence turn-on kinetics with recombinant MGMT, SDS-PAGE in-gel fluorescenc
T1 construct: recombinant MGMT, about 26 kDa
T1 sequence (P16455 1-207): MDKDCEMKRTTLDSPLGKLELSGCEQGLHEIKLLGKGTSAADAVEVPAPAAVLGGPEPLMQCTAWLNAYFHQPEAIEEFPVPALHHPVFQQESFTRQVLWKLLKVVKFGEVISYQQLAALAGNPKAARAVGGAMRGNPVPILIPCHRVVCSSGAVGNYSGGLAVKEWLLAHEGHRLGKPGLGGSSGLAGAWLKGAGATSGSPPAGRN

[2] = target: T2, human carbonic anhydrase II (hCAII) (Homo sapiens, UniProt P00918); assay: fluorescence turn-on titration with hCAII in PBS; displaced by ethoxzolamide; format: binding
T2 construct: gene CA2

Row | Compound | kinact/KI [1] [M⁻¹ s⁻¹] | Kd [2] [nM]
1 | N#C/C(=C\c1cc2c3c(c1)CCCN3CCC2)C(=O)NCc1ccc(COc2nc(N)nc3[nH]cnc23)cc1 [BG-CCVJ] | ~715 | –
2 | N#CC(=Cc1cc2c3c(c1)CCCN3CCC2)C(=O)NCc1ccc(S(N)(=O)=O)cc1 [SA-CCVJ] | – | ~70
